# Measured values: ChEMBL document CHEMBL5357002, “Heterodimers of Aromadendrane Sesquiterpenoid with Benzoquinone from the Chinese Liverwort Mylia nuda” (J Nat Prod, 2024)
# The source made the active and inactive calls. The rule behind the calls is not given here.
# Key:
# [1] = tested on: SH-SY5Y; test: Cytoprotective activity against glutamic acid induced injury in human SH-SY5Y cells assessed as increase in cell viability at 10 to 20 uM by MTT assay; assay type: functional, cell-based; conditions: dose 10-20 µM
# [2] = tested on: SH-SY5Y; test: Cytoprotective activity against glutamic acid induced injury in human SH-SY5Y cells assessed as improvement in cell morphology at 10 uM by immunofluorescence analysis; assay type: functional, cell-based
# [3] = Induction of apoptosis in human SH-SY5Y cells assessed as viable cells incubated for 24 hrs by Annexin V-FITC/PI staining based flow cytometry analysis (reference value: 99.87%); assay type: toxicity, cell-based; conditions: read-out: Activity
# [4] = tested on: SH-SY5Y; test: Induction of apoptosis in human SH-SY5Y cells assessed as early apoptotic cells incubated for 24 hrs by Annexin V-FITC/PI staining based based flow cytometry analysis (reference value: 0.03%); assay type: toxicity, cell-based
# [5] = tested on: SH-SY5Y; test: Induction of apoptosis in human SH-SY5Y cells assessed as late apoptotic cells incubated for 24 hrs by Annexin V-FITC/PI staining based flow cytometry analysis (reference value: 0.04%); assay type: toxicity, cell-based
# [6] = tested on: SH-SY5Y; test: Induction of apoptosis in human SH-SY5Y cells assessed as necrotic cells incubated for 24 hrs by Annexin V-FITC/PI staining based flow cytometry analysis (reference value: 0.06%); assay type: toxicity, cell-based
# [7] = tested on: SH-SY5Y; test: Induction of apoptosis in glutamic acid induced human SH-SY5Y cells assessed as necrotic cells incubated for 24 hrs by Annexin V-FITC/PI staining based flow cytometry analysis (reference value: 3.64%); assay type: functional
# [8] = tested on: SH-SY5Y; test: Induction of apoptosis in glutamic acid induced human SH-SY5Y cells assessed as late apoptotic cells incubated for 24 hrs by Annexin V-FITC/PI staining based flow cytometry analysis (reference value: 0.21%); assay type: functional
# [9] = tested on: SH-SY5Y; test: Induction of apoptosis in glutamic acid induced human SH-SY5Y cells assessed as early apoptotic cells incubated for 24 hrs by Annexin V-FITC/PI staining based flow cytometry analysis (reference value: 34.60%); assay type: functional
# [10] = tested on: SH-SY5Y; test: Induction of apoptosis in glutamic acid induced human SH-SY5Y cells assessed as viable cells incubated for 24 hrs by Annexin V-FITC/PI staining based flow cytometry analysis (reference value: 61.55%); assay type: functional
# [11] = tested on: SH-SY5Y; test: Cytoprotective activity against glutamic acid induced injury in human SH-SY5Y cells assessed as decrease in ROS level at 10 uM by DCFH-DA staining based flow cytometry; assay type: functional, cell-based
smiles,measurement,setting,value
COc1ccc(OC2=C(C)C(=O)[C@@H]3[C@H](C2=O)[C@H]2C[C@@H]3C(C)=C2[C@@H]2[C@H](CCC(C)=O)C2(C)C)cc1C,Activity,[1],Active
same,Activity,[2],Active
same,viability at 24 h,[3],96%
same,Activity,[4],0.39%
same,Activity,[5],0.08%
same,Activity,[6],3.59%
same,Activity,[7],4.49%
same,Activity,[8],0.17%
same,Activity,[9],14.23%
same,Activity,[10],81.11%
same,Activity,[11],Active
COc1ccc(OC2=C(C)C(=O)[C@H]3[C@@H](C2=O)[C@@H]2C[C@H]3C([C@@H]3[C@H](CCC(C)=O)C3(C)C)=C2C)cc1C,Activity,[1],Active
COc1ccc(OC2=C(C)C(=O)[C@H]3[C@@H](C2=O)[C@@H]2C[C@@]3(C)C([C@@H]3[C@H](CCC(C)=O)C3(C)C)=C2C)cc1C,Activity,[1],Active
COc1ccc(OC2=C(C)C(=O)[C@@H]3[C@H](C2=O)[C@H]2C[C@@H]3C([C@@H]3[C@H](CCC(C)=O)C3(C)C)=C2C)cc1C,Activity,[1],Active
COc1ccc(OC2=C[C@@H]3C(=O)[C@](C)(C2=O)[C@@]2(C)C([C@@H]4[C@H](CCC(C)=O)C4(C)C)=CC[C@@H]32)cc1C,Activity,[1],Active
COc1ccc(OC2=C(C)C(=O)[C@H]3[C@@H](C2=O)[C@@H]2C[C@H]3C(C)=C2[C@@H]2[C@H](CCC(C)=O)C2(C)C)cc1C,Activity,[1],Active
